# Measurements: paper PMC8933034, “6-Amino-2,4,5-trimethylpyridin-3-ol and 2-amino-4,6-dimethylpyrimidin-5-ol derivatives as selective fibroblast growth factor receptor 4 inhibitors: design, synthesis, molecular docking, and anti-hepatocellular carcinoma efficacy evaluation” (Journal of Enzyme Inhibition and Medicinal Chemistry, 2022)
# Values joined by “and” are separate entries in the source; they are usually repeats but may differ in a detail not shown here. Identical values can stand only once.
# Tests used:
# Huh7 cells = assay: Cell proliferation assay (MTT), Huh7; assay type: cell-based, human; details: for IC50: Homo sapiens, Huh-7, 48 h treatment, mean ± SEM of three independent experiments; for difference of anti-proliferative activity between Hep3B and Huh7: Huh7 versus Hep3B, 48 h
# Description: (§1) Human HCC cell lines, Hep3B and Huh7 were obtained from American Type Culture Collection (ATCC, Manassas, VA, USA). An H6c7 human normal pancreatic duct epithelial cell line was purchased from Kerafast (Boston, MA, USA). Hep3B and Huh7 cells were cultured in Dulbecco′s Modified Eagle′s Medium (DMEM) (Hyclone, Logan, UT, USA). The media were supplemented with 10% foetal bovine serum (FBS) (Gibco/ThermoFisher Scientific) and 1% penicillin/streptomycin (Gibco/ThermoFisher Scientific). H6c7 cells were maintained in a keratinocyte serum-free medium supplemented with a recombinant […] growth factor (rEGF) and bovine pituitary extract (Gibco/ThermoFisher Scientific). All the cells were incubated at 37 °C under a 5% CO2 atmosphere.
# (§2) Cells were seeded at a density of 5000 cells/well in a 96-well plate. After overnight incubation, the cells were serum-starved using 1% FBS for 24 h. The next day, the cells were pre-treated with the different concentrations (0.1, 1, 3, 10, 30, 100 µM) of drugs for 1 h prior to the treatment with serum (10% FBS). After 48 h of incubation, 3–(4,5-dimethylthiazol-2-yl)-2,5-diphenyltetrazolium bromide (MTT) dye solution was added and incubated for 4 h. Next, DMSO was added, and after 30 min, the colour intensities were measured using a microplate reader (Versamax, Molecular Devices, Inc., USA) at 490 nm.
# [1] = Cytotoxicity assay (MTT), H6c7; assay type: cell-based; details: human, H6c7 normal pancreatic duct epithelial cells, 48 h treatment, mean ± SEM of three independent experiments, read-out: IC50 on cell viability (cytotoxicity), H6c7
# Description: as §1
# The cytotoxicity of the compounds was assessed by measuring the cell viability decrease using the MTT staining method. Briefly, H6c7 cells were seeded in a 96-well plate (Falcon, USA) at a density of 4 × 10^4 cells per well in keratinocyte serum-free medium. After 24 h, Cells were incubated with different concentrations (0.1, 1, 3, 10, 30, and 100) µM of each compound for 48 h, and the cell viability was measured using MTT assay. Optical density was measured at 540 nm using a microplate reader (BMG LABTECH).
# [2] = test system: Hep3B-xenografted CAM tumour model; assay: CAM (chick chorioallantoic membrane) tumour model implanted with Hep3B cells; assay type: in vivo
# Description: Fertile chicken eggs were purchased from Byeolbichon Farm (Gyeongbuk, South Korea) and incubated at 37 °C and under 55% relative humidity. On the 9th day of egg incubation (post-fertilization), false air sac was generated on the relatively flat side of eggs by a negative pressure technique. A small window (1 cm^2) was created on the false air sac surface of the eggs by separating the shell and membrane beneath (technique) using a grinding wheel (Dremel, Racine, WI, USA). Next, Hep3B cells were loaded at a density of 1.5 × 10^6 cells/CAM with or without compound. After four days of drug treatment, the tumour weight, number of vessel branch points within the tumour region were analysed.
# Hep3B cells = assay: Cell proliferation assay (MTT), Hep3B; assay type: cell-based, human; details: for IC50: Homo sapiens, Hep3B, 48 h treatment, mean ± SEM of three independent experiments; for fold less potent than compound 1, Hep3B IC50: 48 h
# Description: as §1, §2
# human FGFR4 kinase = biological target: T1, human FGFR4 kinase (Homo sapiens, UniProt P22455); assay: FGFR4 kinase assay (Kinase HotSpot, Reaction Biology Corp.); assay type: biochemical; details: for inhibition at 1 µM: fixed concentration 1 μM, mean of two independent experiments; for IC50: 7 different concentrations, three independent experiments; for inhibition at 0.01 µM: 0.01 μM concentration, two independent experiments
# T1 construct: purchased Reaction Biology Corporation (Malvern, PA, USA), contract assay service
# Description: A FGFR4 kinase assay was performed at the Reaction Biology Corporation (Malvern, PA, USA) using a Kinase HotSpotSM assay platform (www.reactionbiology.com, last accessed at 19/10/2020). Briefly, human FGFR4 kinase (5–10 mU), peptide substrate, and poly[Glu:Tyr] (4:1) 0.2 mg/ml were prepared in a reaction buffer with a final volume of 25 µL. The compounds were delivered into the reaction, followed ∼20 min. later by the addition of a mixture of ATP and [γ-^33P-ATP] (specific activity approx. 500 cpm/pmol, concentration as required) to a final concentration of 10 µM. After incubation for 40 min. at 25 °C, the reaction was stopped by the addition of a 3% phosphoric acid solution. Then, the reaction was spotted onto a P30 filtermat, and unbound phosphate was removed by washing 3 times for 5 min in 75 mM phosphoric acid and once in methanol prior to drying and scintillation counting. […] IC50 values and curve fits were obtained using GraphPad Prism 5 software.
# FGFR2 = biological target: T2, FGFR2 (Homo sapiens, UniProt P21802); assay: FGFR2 ADP-glow kinase assay; assay type: biochemical; details: for Ratio against FGFR4 (FGFR2): ratio of FGFR2 to FGFR4 inhibitory activity; for IC50: three independent experiments
# T2 construct: purchased Promega, WI, USA
# Description: (§3) FGFR1 ∼ 3 kinase assays were performed using the adenosine diphosphate (ADP)-glow kinase assay kit of FGFR1, FGFR2, and FGFR3 kinase enzyme systems (Promega, WI, USA) in accordance with the manufacturer’s instructions. […] The reaction was carried out at 25 °C for 1 h in a total volume of 25 µL. Subsequently, 25 µL of ADP-Glow reagent was added to the mixture, and then incubated for 40 min at 25 °C. After the addition of 50 µL of ADP detection reagents for 30 min at 25 °C, luminescence was measured using a Fluostar Omega microplate reader (BMG LABTECH GmbH, Ortenberg, Germany).
# FGFR1 = biological target: T3, FGFR1 (Homo sapiens, UniProt P11362); assay: FGFR1 ADP-glow kinase assay; assay type: biochemical; details: for Ratio against FGFR4 (FGFR1): ratio of FGFR1 to FGFR4 inhibitory activity; for IC50: three independent experiments
# T3 construct: purchased Promega, WI, USA
# Description: as §3
# FGFR3 = biological target: T4, FGFR3 (Homo sapiens, UniProt P22607); assay: FGFR3 ADP-glow kinase assay; assay type: biochemical; details: for Ratio against FGFR4 (FGFR3): ratio of FGFR3 to FGFR4 inhibitory activity; for IC50: three independent experiments
# T4 construct: purchased Promega, WI, USA
# Description: as §3
# [3] = four days after Hep3B xenograft on CAM
# [4] = number of new vessel branches on CAM, four days
# T3 sequence (P11362 22-822): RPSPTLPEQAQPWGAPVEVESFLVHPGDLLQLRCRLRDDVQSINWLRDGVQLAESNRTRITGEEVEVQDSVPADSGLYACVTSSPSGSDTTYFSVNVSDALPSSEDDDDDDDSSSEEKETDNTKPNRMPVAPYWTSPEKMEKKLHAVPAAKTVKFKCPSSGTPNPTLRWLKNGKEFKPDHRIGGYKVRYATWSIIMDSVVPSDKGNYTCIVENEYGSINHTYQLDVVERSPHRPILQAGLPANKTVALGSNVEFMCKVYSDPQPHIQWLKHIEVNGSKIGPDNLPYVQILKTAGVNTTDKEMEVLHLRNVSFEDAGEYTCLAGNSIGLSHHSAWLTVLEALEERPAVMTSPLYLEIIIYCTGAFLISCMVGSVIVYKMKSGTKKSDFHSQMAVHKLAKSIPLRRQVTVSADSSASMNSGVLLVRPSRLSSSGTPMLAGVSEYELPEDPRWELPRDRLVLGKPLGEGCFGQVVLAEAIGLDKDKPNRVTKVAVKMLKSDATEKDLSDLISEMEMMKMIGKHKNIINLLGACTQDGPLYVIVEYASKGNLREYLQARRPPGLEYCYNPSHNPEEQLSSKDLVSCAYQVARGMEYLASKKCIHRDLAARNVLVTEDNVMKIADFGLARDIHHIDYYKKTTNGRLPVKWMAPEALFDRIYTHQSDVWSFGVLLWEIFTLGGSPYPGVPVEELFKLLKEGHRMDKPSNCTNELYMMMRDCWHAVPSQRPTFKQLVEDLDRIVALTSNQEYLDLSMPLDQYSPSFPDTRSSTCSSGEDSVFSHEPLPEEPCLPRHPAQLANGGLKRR
# T1 sequence (P22455 22-802): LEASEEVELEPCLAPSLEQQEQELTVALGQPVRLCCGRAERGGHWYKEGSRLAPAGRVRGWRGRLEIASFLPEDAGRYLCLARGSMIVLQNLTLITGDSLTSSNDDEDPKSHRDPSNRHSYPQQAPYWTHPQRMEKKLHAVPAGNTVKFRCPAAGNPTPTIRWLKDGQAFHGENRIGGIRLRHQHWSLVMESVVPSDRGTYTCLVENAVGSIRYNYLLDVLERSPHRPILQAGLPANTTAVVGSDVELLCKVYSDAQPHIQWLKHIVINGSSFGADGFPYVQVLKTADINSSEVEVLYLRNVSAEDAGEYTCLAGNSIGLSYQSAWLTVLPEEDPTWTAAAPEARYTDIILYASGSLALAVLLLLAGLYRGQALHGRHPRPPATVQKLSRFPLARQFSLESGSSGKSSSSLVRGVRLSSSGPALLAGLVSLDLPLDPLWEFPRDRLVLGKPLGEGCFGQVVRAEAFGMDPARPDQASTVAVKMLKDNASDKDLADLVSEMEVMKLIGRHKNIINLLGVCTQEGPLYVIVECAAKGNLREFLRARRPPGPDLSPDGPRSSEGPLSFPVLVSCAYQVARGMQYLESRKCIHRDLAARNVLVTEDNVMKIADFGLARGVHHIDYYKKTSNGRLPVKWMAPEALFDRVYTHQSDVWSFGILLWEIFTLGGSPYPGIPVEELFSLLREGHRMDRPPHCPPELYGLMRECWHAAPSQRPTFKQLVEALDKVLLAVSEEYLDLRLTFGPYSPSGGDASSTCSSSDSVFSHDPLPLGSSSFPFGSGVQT
# T2 sequence (P21802 22-821): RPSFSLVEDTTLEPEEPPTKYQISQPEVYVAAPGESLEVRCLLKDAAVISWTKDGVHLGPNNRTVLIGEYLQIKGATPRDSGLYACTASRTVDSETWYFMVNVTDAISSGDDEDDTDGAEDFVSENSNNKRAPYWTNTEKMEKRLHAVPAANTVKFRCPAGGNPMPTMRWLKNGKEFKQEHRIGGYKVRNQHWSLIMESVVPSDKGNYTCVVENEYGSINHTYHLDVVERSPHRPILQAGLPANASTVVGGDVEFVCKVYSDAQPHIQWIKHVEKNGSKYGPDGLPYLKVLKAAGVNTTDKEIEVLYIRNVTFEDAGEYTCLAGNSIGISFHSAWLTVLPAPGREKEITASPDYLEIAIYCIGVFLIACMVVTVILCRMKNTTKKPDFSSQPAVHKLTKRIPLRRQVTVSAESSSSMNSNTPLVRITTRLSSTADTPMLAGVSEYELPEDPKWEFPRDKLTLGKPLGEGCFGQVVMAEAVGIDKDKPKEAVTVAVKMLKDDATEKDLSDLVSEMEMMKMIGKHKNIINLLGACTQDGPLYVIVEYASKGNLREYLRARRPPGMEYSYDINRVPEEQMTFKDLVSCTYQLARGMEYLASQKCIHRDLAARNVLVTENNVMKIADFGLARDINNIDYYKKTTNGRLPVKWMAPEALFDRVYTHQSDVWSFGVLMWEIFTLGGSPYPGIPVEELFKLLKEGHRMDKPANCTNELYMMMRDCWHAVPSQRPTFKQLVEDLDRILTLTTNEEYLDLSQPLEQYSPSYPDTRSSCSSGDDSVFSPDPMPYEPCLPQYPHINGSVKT
# T4 sequence (P22607 23-806): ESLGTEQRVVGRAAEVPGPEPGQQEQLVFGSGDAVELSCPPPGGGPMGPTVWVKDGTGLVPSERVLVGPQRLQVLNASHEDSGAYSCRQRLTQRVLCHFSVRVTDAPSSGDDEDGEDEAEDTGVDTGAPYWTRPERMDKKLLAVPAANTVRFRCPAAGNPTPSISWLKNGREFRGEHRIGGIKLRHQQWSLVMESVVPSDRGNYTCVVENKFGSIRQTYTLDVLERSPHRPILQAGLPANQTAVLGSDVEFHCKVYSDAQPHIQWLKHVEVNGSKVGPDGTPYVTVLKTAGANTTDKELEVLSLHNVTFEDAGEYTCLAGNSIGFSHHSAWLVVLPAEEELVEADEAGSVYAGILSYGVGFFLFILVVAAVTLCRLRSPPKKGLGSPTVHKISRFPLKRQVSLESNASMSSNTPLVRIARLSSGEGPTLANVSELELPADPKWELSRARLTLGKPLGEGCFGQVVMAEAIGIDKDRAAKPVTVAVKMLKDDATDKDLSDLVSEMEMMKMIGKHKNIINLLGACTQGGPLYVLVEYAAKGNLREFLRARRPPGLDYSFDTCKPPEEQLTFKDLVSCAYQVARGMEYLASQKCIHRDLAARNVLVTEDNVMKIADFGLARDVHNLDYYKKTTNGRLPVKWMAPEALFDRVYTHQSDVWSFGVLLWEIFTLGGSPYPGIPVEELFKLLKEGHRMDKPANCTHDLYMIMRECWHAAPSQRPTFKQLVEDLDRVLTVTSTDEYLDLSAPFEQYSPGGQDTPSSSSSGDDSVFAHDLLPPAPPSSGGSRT
structure (smiles),measurement,setting,value
"C=CC(=O)Nc1cccc(C)c1Nc1ncc2cc(-c3c(Cl)c(OC)cc(OC)c3Cl)ccc2n1 [Compound 1, reference compound]",IC50,Huh7 cells,7.1 ± 5 µM
same,difference of anti-proliferative activity between Hep3B and Huh7,Huh7 cells,7 fold
same,IC50 at 48 h,[1],13.4 µM
same,tumour growth,[2]; [3],dose-dependently inhibited
same,tumour-induced angiogenesis,[2]; [4],significantly blocked
same,IC50,Hep3B cells,0.9 ± 0.1 µM
C=CC(=O)Nc1ccc(N2CCN(CC)CC2)cc1Nc1nc(C)c(OCc2c(F)c(OC)cc(OC)c2F)c(C)n1 [Compound 6AA],inhibition at 1 µM,human FGFR4 kinase,10.3%
C=CC(=O)Nc1cn(C)nc1Nc1nc(C)c(OCc2c(F)c(OC)cc(OC)c2F)c(C)c1C [Compound 6A],Ratio against FGFR4 (FGFR2),FGFR2,6.0
same,IC50,FGFR2,1.15 µM
same,IC50,Huh7 cells,21.3 ± 6 µM
same,difference of anti-proliferative activity between Hep3B and Huh7,Huh7 cells,did not show a significant difference
same,IC50 at 48 h,[1],> 100 µM
same,IC50,human FGFR4 kinase,0.19 µM
same,inhibition at 1 µM,human FGFR4 kinase,62.8%
same,Ratio against FGFR4 (FGFR1),FGFR1,8.2
same,IC50,FGFR1,1.56 µM and 1.57 µM
same,Ratio against FGFR4 (FGFR3),FGFR3,1.5
same,IC50,FGFR3,0.277 µM
same,"fold less potent than compound 1, Hep3B IC50",Hep3B cells,28 fold
same,IC50,Hep3B cells,25.2 µM
C=CC(=O)Nc1ccc(N2CCN(CC)CC2)cc1Nc1nc(C)c(OCc2c(Cl)c(OC)cc(OC)c2Cl)c(C)n1 [Compound 6BB],inhibition at 1 µM,human FGFR4 kinase,5.4%
C=CC(=O)Nc1cn(C)nc1Nc1nc(C)c(OCc2c(Cl)c(OC)cc(OC)c2Cl)c(C)c1C [Compound 6B],inhibition at 1 µM,human FGFR4 kinase,16.9%
C=CC(=O)Nc1cn(C)nc1Nc1nc(C)c(OCc2c(F)c(OC)cc(OC)c2F)c(C)n1 [Compound 6C],inhibition at 1 µM,human FGFR4 kinase,22%
C=CC(=O)Nc1cn(C)nc1Nc1nc(C)c(OCc2c(Cl)c(OC)cc(OC)c2Cl)c(C)n1 [Compound 6D],inhibition at 1 µM,human FGFR4 kinase,8%
C=CC(=O)Nc1cccc(C)c1Nc1nc(C)c(OCc2c(F)c(OC)cc(OC)c2F)c(C)c1C [Compound 6E],inhibition at 0.01 µM,human FGFR4 kinase,5%
same,inhibition at 1 µM,human FGFR4 kinase,7.2%
C=CC(=O)Nc1cccc(C)c1Nc1nc(C)c(OCc2c(Cl)c(OC)cc(OC)c2Cl)c(C)c1C [Compound 6F],inhibition at 1 µM,human FGFR4 kinase,5.4%
C=CC(=O)Nc1cccc(C)c1Nc1nc(C)c(OCc2c(F)c(OC)cc(OC)c2F)c(C)n1 [Compound 6G],inhibition at 0.01 µM,human FGFR4 kinase,3.3%
same,inhibition at 1 µM,human FGFR4 kinase,24.8%
C=CC(=O)Nc1cccc(C)c1Nc1nc(C)c(OCc2c(Cl)c(OC)cc(OC)c2Cl)c(C)n1 [Compound 6H],inhibition at 1 µM,human FGFR4 kinase,14%
C=CC(=O)Nc1ccc(Nc2nc(C)c(OCc3c(F)c(OC)cc(OC)c3F)c(C)c2C)c(C)c1 [Compound 6I],inhibition at 1 µM,human FGFR4 kinase,9.7%
C=CC(=O)Nc1ccc(Nc2nc(C)c(OCc3c(Cl)c(OC)cc(OC)c3Cl)c(C)c2C)c(C)c1 [Compound 6J],inhibition at 1 µM,human FGFR4 kinase,5.9%
C=CC(=O)Nc1ccc(Nc2nc(C)c(OCc3c(F)c(OC)cc(OC)c3F)c(C)n2)c(C)c1 [Compound 6K],inhibition at 1 µM,human FGFR4 kinase,4.9%
C=CC(=O)Nc1ccc(Nc2nc(C)c(OCc3c(Cl)c(OC)cc(OC)c3Cl)c(C)n2)c(C)c1 [Compound 6L],inhibition at 1 µM,human FGFR4 kinase,3.6%
C=CC(=O)Nc1cc(F)cc(Cl)c1Nc1nc(C)c(OCc2c(F)c(OC)cc(OC)c2F)c(C)c1C [Compound 6M],inhibition at 1 µM,human FGFR4 kinase,9.9%
C=CC(=O)Nc1cc(F)cc(Cl)c1Nc1nc(C)c(OCc2c(Cl)c(OC)cc(OC)c2Cl)c(C)c1C [Compound 6N],inhibition at 1 µM,human FGFR4 kinase,11.9%
"C=CC(=O)Nc1cc(F)cc(Cl)c1Nc1nc(C)c(OCc2c(F)c(OC)cc(OC)c2F)c(C)n1 [Compound 6O, N-(3-Chloro-2-((5-((2,6-difluoro-3,5-dimethoxybenzyl)oxy)-4,6-dimethylpyrimidin-2-yl)amino)-5-fluorophenyl)acrylamide]",Ratio against FGFR4 (FGFR2),FGFR2,471.1
same,IC50,FGFR2,35.5 µM
same,IC50,Huh7 cells,12.6 ± 1.3 µM
same,difference of anti-proliferative activity between Hep3B and Huh7,Huh7 cells,2.8 fold
same,IC50 at 48 h,[1],18 µM
same,inhibitory effect on the tumour weight compared with compound 1,[2]; [3],slightly weaker
same,tumour growth,[2]; [3],dose-dependently inhibited
same,antiangiogenic effect compared with compound 1,[2]; [4],slightly weaker
same,tumour-induced angiogenesis,[2]; [4],significantly blocked
same,IC50,human FGFR4 kinase,0.0753 µM
same,inhibition at 1 µM,human FGFR4 kinase,96.7%
same,FGFR4 selectivity compared to BLU9931 (1),human FGFR4 kinase; from Table 1 ratios,at least 8 times
same,Ratio against FGFR4 (FGFR1),FGFR1,> 663.8
same,IC50,FGFR1,> 50 µM
same,Ratio against FGFR4 (FGFR3),FGFR3,> 398.3
same,IC50,FGFR3,> 30 µM
same,"fold less potent than compound 1, Hep3B IC50",Hep3B cells,5 fold
same,IC50,Hep3B cells,4.5 µM
C=CC(=O)Nc1cc(F)cc(Cl)c1Nc1nc(C)c(OCc2c(Cl)c(OC)cc(OC)c2Cl)c(C)n1 [Compound 6P],inhibition at 1 µM,human FGFR4 kinase,12.8%
C=CC(=O)Nc1cccc(OC)c1Nc1nc(C)c(OCc2c(F)c(OC)cc(OC)c2F)c(C)c1C [Compound 6Q],inhibition at 1 µM,human FGFR4 kinase,10.3%
C=CC(=O)Nc1cccc(OC)c1Nc1nc(C)c(OCc2c(Cl)c(OC)cc(OC)c2Cl)c(C)c1C [Compound 6R],inhibition at 1 µM,human FGFR4 kinase,6.9%
C=CC(=O)Nc1cccc(OC)c1Nc1nc(C)c(OCc2c(F)c(OC)cc(OC)c2F)c(C)n1 [Compound 6S],inhibition at 1 µM,human FGFR4 kinase,49.3%
C=CC(=O)Nc1cccc(OC)c1Nc1nc(C)c(OCc2c(Cl)c(OC)cc(OC)c2Cl)c(C)n1 [Compound 6T],inhibition at 1 µM,human FGFR4 kinase,11%
C=CC(=O)Nc1ccc(OC)cc1Nc1nc(C)c(OCc2c(F)c(OC)cc(OC)c2F)c(C)c1C [Compound 6U],inhibition at 1 µM,human FGFR4 kinase,10.1%
C=CC(=O)Nc1ccc(OC)cc1Nc1nc(C)c(OCc2c(Cl)c(OC)cc(OC)c2Cl)c(C)c1C [Compound 6V],inhibition at 1 µM,human FGFR4 kinase,7.7%
C=CC(=O)Nc1ccc(OC)cc1Nc1nc(C)c(OCc2c(F)c(OC)cc(OC)c2F)c(C)n1 [Compound 6W],inhibition at 1 µM,human FGFR4 kinase,12.2%
C=CC(=O)Nc1ccc(OC)cc1Nc1nc(C)c(OCc2c(Cl)c(OC)cc(OC)c2Cl)c(C)n1 [Compound 6X],inhibition at 1 µM,human FGFR4 kinase,6.3%
C=CC(=O)Nc1ccc(N2CCN(CC)CC2)cc1Nc1nc(C)c(OCc2c(F)c(OC)cc(OC)c2F)c(C)c1C [Compound 6Y],inhibition at 1 µM,human FGFR4 kinase,10.4%
C=CC(=O)Nc1ccc(N2CCN(CC)CC2)cc1Nc1nc(C)c(OCc2c(Cl)c(OC)cc(OC)c2Cl)c(C)c1C [Compound 6Z],inhibition at 1 µM,human FGFR4 kinase,2.7%
"C=CC(=O)Nc1cccc(C)c1Nc1ccc(OCc2c(F)c(OC)cc(OC)c2F)cn1 [Compound 41, reference compound]",inhibition at 0.01 µM,human FGFR4 kinase,91%
"C=CC(=O)Nc1cccc(C)c1Nc1ncc(OCc2c(F)c(OC)cc(OC)c2F)cn1 [Compound 42, reference compound]",inhibition at 0.01 µM,human FGFR4 kinase,87.4%
